Assay results reported in PMC7463734, “Identification and Validation of an Aspergillus nidulans Secondary Metabolite Derivative as an Inhibitor of the Musashi-RNA Interaction” (Cancers, 2020).
Where two headings read alike, the source gives them in different places.

B1: NumbFITC RNA (ssRNA)
RNA: UAGGUAGUAGUUUUA

Tests used:
[1] = target: T1, RBD1 of MSI1 (Homo sapiens, UniProt O43347); experiment: FP dose-response (competition) disrupting RBD1-Numb^FITC complex; format: binding
T1 construct: made in house; host or cells: Escherichia coli
T1 sequence (O43347 20-107): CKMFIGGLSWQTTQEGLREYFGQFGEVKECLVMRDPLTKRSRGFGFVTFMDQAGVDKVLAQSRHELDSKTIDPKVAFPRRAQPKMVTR
Method: To further examine the initial hits, we tested compounds with similar scaffolds shown in Figure 3 and Figure S1 in an FP dose-response assay. […] We thus focused our further validation studies on Aza-9.
Figure 4 FP dose-response validation compounds binding to RBD1 of MSI1. Ki values were calculated based on the Kd and the dose-response curves. TEXT PRINTED IN THE PICTURE: Aza-7: IC50 [μM]: 7.1; Ki [μM]: 3.0 | Aza-8: IC50 [μM]: 4.0; Ki [μM]: 1.7 | Aza-9: IC50 [μM]: 2.8; Ki [μM]: 1.2 | Aza-10: IC50 [μM]: 7.5; Ki [μM]: 3.2 | Aza-11: IC50 [μM]: 3.9; Ki [μM]: 1.7 | Aza-12: IC50 [μM]: 6.3; Ki [μM]: 2.7 | Aza-13: IC50 [μM]: 4.5; Ki [μM]: 1.9 | Aza-14: IC50 [μM]: 11.6; Ki [μM]: 5.0 | Aza-15: IC50 [μM]: >20 | Aza-16: IC50 [μM]: 6.8; Ki [μM]: 2.9 | Aza-17: IC50 [μM]: >20
pET21a-GB1-RBD1 (MSI1-RBD1) plasmids encoding the Homo sapiens RNA binding domain 1 (RBD1, residues 20-107) of MSI1 were constructed with Mus musculus cDNAs under T7 promoter. MSI1-RBD1 proteins were expressed in Escherichia coli and purified, as previously described. Protein concentrations were determined using the Bradford assay (Bio-Rad, Hercules, CA, USA). Purification of MSI2-RBD1 protein was carried out according to the previous publication.
FP, SPR and NMR assays were carried out according to the previous publication. For computer modeling of Aza-9 to MSI1/2, the AutoDock4.2.6 program was used for predicting the binding mode. The NMR structure of MSI1-RBD1 in complex with RNA (PDB: 2RS2) and the NMR structure of apo MSI2-RBD1 (PDB: 6C8U) were used as the receptor structure. The MSI1 RBD1–RNA interface and corresponding site in MSI2-RBD1 was used as the starting point for the docking calculations. The initial three-dimensional model of the Aza-9 compound was generated using the BABEL program and was used as starting coordinates to define the ligand structure. For docking, a grid box of size 40 × 44 × 56 A with 0.375 A spacing was centered at residue F23 in MSI1-RBD1 (or F24 in MSI2-RBD1). A total of 200 docking runs were carried out using the Lamarckian genetic algorithm. The docked conformation with the lowest energy was selected as the final conformation.

[2] = target: T2, MSI2-RBD1 (Homo sapiens, UniProt Q96DH6); experiment: FP dose response of binding to MSI2-RBD1 (Numb^FITC RNA)
T2 construct: made in house
T2 sequence (Q96DH6 21-111 limits assumed): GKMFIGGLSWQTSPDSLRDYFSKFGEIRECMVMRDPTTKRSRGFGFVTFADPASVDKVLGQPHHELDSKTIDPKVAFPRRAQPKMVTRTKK
Source text: To test whether Aza-9 can be used as a dual inhibitor to block the RNA-binding ability of both Musashi proteins, we tested Aza-9 for Musashi-2 (MSI2) binding in FP and NMR assays as previously described. […] These residues are in similar positions to F23, F65, and K93 in MSI1-RBD1 [36]. We mapped the peak intensity ratios lower than one standard deviation from the mean (Figure S2) to the structure of MSI2-RBD1. Residues with significant peak intensity reductions clustered around the RNA binding site, which is composed of the central four anti-parallel β sheets and surrounding loops (Figure 6C).
Figure 6 Aza-9 binds to MSI2-RBD1. (A) FP dose response of Aza-9 binding to MSI2-RBD1. (B) ^1H-^15N HSQC spectra of 80 μM ^15N and ^13C ILV methyl labeled MSI2-RBD1 with increasing molar ratios of AZA-9. (C) Mapping residues with peak intensity ratio lower than one standard deviation from the mean onto the structure of MSI2-RBD1. Residues with peak intensity ratio lower than 0.40 are colored red; residues with peak intensity ratios in the range of 0.40–0.54 are colored yellow. (D) Computational docking of Aza-9 bound to MSI2-RBD1. The Aza-9 is shown in sticks, and the protein is represented as spheres. Five of MSI2-RBD1 RNA binding residues (M23, G26, F64, V95, and K94) that undergo significant peak shifts are highlighted in green. […]

[3] = system: T3, GB1-RBD1 (MSI1); experiment: SPR binding to immobilized GB1-RBD1; design: species or system Homo sapiens; conditions: increasing concentrations
T3 construct: made in house; host or cells: Escherichia coli
Source text: An SPR assay with the protein GB1-RBD1 and not the RNA allowed us to evaluate the binding of the compound to the protein directly.
Figure 5 Validation of the top hit Aza-9. (A) SPR analyses of Aza-9 binding to immobilized GB1-RBD1. Sensorgram representing direct binding kinetics for Aza-9 are shown in response units (RUs) as a function of time with increasing concentrations (shown as colorful lines). (B) Numb RNA pulldown. (Top) Numb^biotin (lane 4) can pull down MSI1 but not CTL^biotin (lane 3); Numb-Mut^biotin (lane 2) partially pulled down MSI1. […] (Bottom) 20 μM Aza-9 attenuated the binding between MSI1 and Numb^biotin RNA. n = 2, one representative western blot is shown. (C) Overlay of 15N-HSQC (Heteronuclear single quantum coherence spectroscopy) spectra sections of MSI1-RBD1 (black), and MSI1-RBD1 bound to Aza-9 at different ratios. (D) Computational docking of Aza-9 bound to RBD1. The Aza-9 is shown in sticks, and the protein is represented as spheres. Three of MSI1-RBD1 RNA binding residues (W29, F23, and K93) that undergo significant peak shifts are highlighted in cyan.
FP, SPR and NMR assays were carried out according to the previous publication. For computer modeling of Aza-9 to MSI1/2, the AutoDock4.2.6 program was used for predicting the binding mode. […]

[4] = system: T4, MSI1; experiment: Numb RNA pull-down from HCT-116 β/W cell lysate; format: cell-based, Human; conditions: 20 μM, 6 h
T4 construct: test whether biotinylated Numb RNA (Numb^biotin) can pull down MSI1 protein from the cell lysate; endogenous in cells; host or cells: HCT-116 β/W
Source text: To test whether Aza-9 disrupts the binding of MSI1 to Numb RNA in cells, we carried out an RNA pull-down assay using HCT-116 β/W cell lysate. Before we tested our compound in the assay, we tested whether biotinylated Numb RNA (Numb^biotin) can pull down MSI1 protein from the cell lysate. […] Mutations in Numb (Numb-mut^biotin) attenuated its binding to MSI1 (lane 2 versus lane 4, Figure 5B and Figure S4 top panel). As a positive control, we added non-labelled Numb RNA to the system, Numb RNA completely abolished the binding between Numb^biotin and MSI1 (lane 6 versus lane 4, Figure 5B and Figure S4 top panel). […] Next, we tested whether Aza-9 can attenuate MSI1 RNA binding.
RNA pull-downs were carried out according to manufacturer’s protocol with modifications (Roche, Basel, Switzerland). Briefly, HCT-116 β/W cells were plated on 100 mm dish on day 1. The next day, cells were treated with Aza-9 (20 μM) or DMSO for 6 h, and cell lysates were collected using buffer 1 from IP kit (Roche). Protein concentrations were measured for each sample, and streptavidin beads were added for preclearance and incubated at 4 °C for 3 h. After preclearance, for each sample, 500 μg of total protein was transferred to a new tube. For positive control, unlabeled Numb (final concentration: 5 μM) was added and incubated in 4 °C. […]

[5] = system: HCT-116; experiment: MTT-based cytotoxicity assay; format: cell-based, Human
Method: In an 3-(4,5-dimethylthiazol-2-yl)-2,5-diphenyl tetrazolium bromide (MTT)-based cytotoxicity assay, free Aza-9 had no effect on the cell viability (Figure 7A), potentially due to poor cellular uptake (Figure 7B, upper left panel). We then used PEGylated liposomes to facilitate Aza-9 entry into the cells (Figure 7B, bottom panel compare to upper left panel). Compared to the free Aza-9, which has no effect at 300 µM, Aza-9-liposome (Aza-9-lip) killed colon cancer cell line HCT-116 with an IC50 around 90 µM (Figure 7A). […] Consistent with MTT, Aza-9-lip, but not liposomes, inhibited cell proliferation in a cell growth assay (Figure 7C). […] (Figure 8A). To determine whether Aza-9-lip induces apoptosis and/or autophagy in the colon cancer cell lines, we first measured caspase-3 and PARP cleavage levels. As shown in Figure 8B and Figure S5, Aza-9-lip induced caspase-3 and PARP cleavage in HCT-116 and DLD-1 cells. […]
Human colon cancer cell lines HCT-116, DLD-1, and RKO were obtained from American Type Culture Collection (ATCC) and are as described by Lan et al.. Cell growth, MTT, cell cycle analysis, western blot analysis, RT-PCR, and quantitative real-time PCR were carried out according to our previous publications. For western blot analysis with Aza-9-liposome treatment, samples were collected after 24 h; for quantitative real-time PCR, samples were collected after 48 h. […]

[6] = target: GB1-MSI1-RBD1 (Homo sapiens (Methods: human RBD1, …, UniProt O43347 20-107)); experiment: fluorescence polarization; 2-10 nM RNA; FP with 2 nM FITC-RNA; 0-2% DMSO had no significant effect (2 h incubation); buffer, salt, pH and temperature not given (cited to earlier publications); conditions: protein: recombinant; tags: GB1 (protein G B1 domain); label: 3'-FITC; single strand
[7] = FP dose-response, RBD1 of MSI1, read-out: IC50
[8] = calculated based on the Kd and the dose-response curves, read-out: Ki

Molecule | IC50 [1, 7] | Ki [1, 8] | also measured
CC[C@H](C)/C=C(C)/C=C/C1=CC2=C(Cl)C(=O)C(C)(OC(C)=O)C(=O)C2=CO1 (some centres unmarked) [Aza-8] | 4 µM | 1700 nM | –
CC[C@H](C)/C=C(C)/C=C/C1=CC2=C(Br)C(=O)C(C)(OC(C)=O)C(=O)C2=CO1 (some centres unmarked) [Aza-9] | 2.8 µM | 1200 nM | dose-response effect in disrupting the RBD1-Numb^FITC complex / affinity towards GB1-RBD1 [1]: highest affinity; IC50 [2]: 4.1 µM; Ki [2]: 500 nM; binding to GB1-RBD1 in SPR [3]: dose-dependent binding; binding between MSI1 and Numb RNA (pull-down) [4]: attenuate, at least in part; effect on cell viability ([5]; 300 µM, HCT-116): no effect; IC50 ([5]; Homo sapiens, HCT-116, MTT): > 300 µM
CC[C@H](C)/C=C(C)/C=C/C1=CC2=C(Cl)C(=O)[C@](C)(OC(C)=O)C(=O)C2=CO1 [Aza-7, sclerotiorin] | 7.1 µM | 3000 nM | –
CC[C@H](C)/C=C(C)/C=C/C1=CC2=C(Cl)C(=O)C(C)(O)C(=O)C2=CO1 (some centres unmarked) [Aza-12] | – | – | IC50 [1]: 6.3 µM; Ki [1]: 2700 nM
CC[C@H](C)/C=C(C)/C=C/C1=CC2=CC(=O)C(C)(O)C(=O)C2=CO1 (some centres unmarked) [Aza-11] | 3.9 µM | 1700 nM | –
CC[C@H](C)/C=C(C)/C=C/C1=CC2=C(Br)C(=O)C(C)(O)C(=O)C2=CO1 (some centres unmarked) [Aza-13] | 4.5 µM | 1900 nM | –
B1 | – | – | Kd [6]: < 250 nM
